Results on 24 molecules are retold here after patent US9539239B1, “Compositions and methods for treatment of neurodegenerative disease” (priority 2010, dated 2017).

B1: FLT3 ligand: RTK ligand; ligand of the receptor tyrosine kinase FLT3 (protein, UniProt P49771 27-235, looked up)
Fms-related tyrosine kinase 3 …: TQDCSFQHSPISSDFAVKIRELSDYLLQDYPVTVASNLQDEELCGGLWRLVLAQRWMERLKTVAGSKMQGLLERVNTEIHFVTKCAFQPPPSCLRFVQTNISRLLQETSEQLVALKPWITRQNFSRCLELQCQPDSSTLPPPWSPRPLEATAPTAPQPPLLLLLLLPVGLLLLAAAWCLHWQRTRRRTPRPGEQVPPVPSPQDLLLVEH

System in the first assay: not given
Assay: not given
The following applies: cited from earlier work.
As for B1, the concentration for a half-maximal effect (EC50) is 4 ng/mL.

A further assay concerns retinal ganglion cells (RGCs). Description: RGC neurite growth in primary retinal ganglion cell culture (high-content screening). The following applies: potency relative to sunitinib; baseline culture with 2.5 μM forskolin. It counts as cell-based, mouse and rat. The protocol: (§1) In this Example, certain compounds were administered to retinal ganglion cells (RGCs) in cell culture to determine the effects of the compounds on neuronal count and neurite growth.
We established a robust high-content screening system combining the immunopanning- or other immunobead-based purification of primary mouse and rat RGCs and automated fluorescence-based imaging analysis (see, e.g., U.S. Patent Publication No. 2007/0185069, incorporated herein by reference). To enhance the assay sensitivity, the culture condition is defined to support a baseline level of RGC viability (20˜60% surviving RGCs after three days in culture) and neurite growth by 2.5 μM forskolin.
In addition, certain tested compounds stimulated RGC neurite growth.
With `Cc1c([S+](C)[O-])ccc2c1/C(=C/c1cc3c([nH]1)CCCC3)C(=O)N2` (centres unmarked) [Example 5], the “Neurite Promotion” value is recorded as “** (approximately 40-80% as potent as sunitinib)”.

For the molecule `CCN(CC)CCNC(=O)c1c(C)[nH]c(/C=C2\C(=O)Nc3ccc([S+](C)[O-])cc32)c1C` (centres unmarked) [Example 18], the “Neurite Promotion” value is recorded as “*** (at least approximately 80% as potent as sunitinib)”. For `CCN(CC)CCNC(=O)c1c(C)[nH]c(/C=C2\C(=O)Nc3ccc([S+](C)[O-])cc32)c1C` (centres unmarked) [Example 17], the “Neurite Promotion” value was “*** (at least approximately 80% as potent as sunitinib)”.

A further assay concerns RGC. Description: Effect of FLT3 ligand on RGC survival. To be noted: 4 ng/ml (its EC50). It counts as cell-based.
For the molecule B1, the “reduction of RGC survival” value was “does not do so”.

The same assay, now with this note: 16 ng/ml, four times its EC50.
On to B1, for which the “reduction of RGC survival” value turned out to be 38.3%.

The test system of the next assay is retinal ganglion cells (RGCs). The assay is described as follows: RGC survival in primary retinal ganglion cell culture (high-content screening). The assay is classed as cell-based, mouse and rat. To be noted: potency relative to sunitinib; baseline culture with 2.5 μM forskolin. The protocol:
as §1
We established a robust high-content screening system combining the immunopanning- or other immunobead-based purification of primary mouse and rat RGCs and automated fluorescence-based imaging analysis (see, e.g., U.S. Patent Publication No. 2007/0185069, incorporated herein by reference). To enhance the assay sensitivity, the culture condition is defined to support a baseline level of RGC viability (20˜60% surviving RGCs after three days in culture) and neurite growth by 2.5 μM forskolin. […]
Take `Cc1c(/C=C2\C(=O)Nc3ccc(C(=O)N4CCCC4)cc32)[nH]c2c1C(=O)C(C)(C)CC2` [Example 13]: the “RGC Survival Activity” value is given as “*** (at least approximately 80% as potent as sunitinib)”.

In the case of `C[S+]([O-])c1ccc2c(c1)/C(=C/c1cc3c([nH]1)CC(C)(C)CC3=O)C(=O)N2` (centres unmarked) [Example 2], the “RGC Survival Activity” value is reported as “*** (at least approximately 80% as potent as sunitinib)”. As to `CCCCN(C)C(=O)c1ccc2c(c1)/C(=C/c1[nH]c3c(c1C)C(=O)C(C)(C)CC3)C(=O)N2` [Example 11], the “RGC Survival Activity” value was “** (approximately 40-80% as potent as sunitinib)”. `Cc1c([S+](C)[O-])ccc2c1/C(=C/c1cc3c([nH]1)CCCC3)C(=O)N2` (centres unmarked) [Example 5]: the “RGC Survival Activity” value is “* (approximately 10-40% as potent as sunitinib)”.

For the molecule `CN(C)C(=O)c1ccc2c(c1)/C(=C/c1cc3c([nH]1)CC(C)(C)CC3=O)C(=O)N2` [Example 15], the “RGC Survival Activity” value is on record as “** (approximately 40-80% as potent as sunitinib)”. For the molecule `C[S+]([O-])c1ccc2c(c1)/C(=C/c1cc3c([nH]1)CCCC3=O)C(=O)N2` (centres unmarked) [Example 3], the “RGC Survival Activity” value was “*** (at least approximately 80% as potent as sunitinib)”. In the case of `C[S+]([O-])c1ccc2c(c1)/C(=C/c1cc3c([nH]1)CCCC3)C(=O)N2` (centres unmarked) [Example 6], the “RGC Survival Activity” value is reported as “*** (at least approximately 80% as potent as sunitinib)”. `Cc1c(/C=C2\C(=O)Nc3ccc(C(=O)N(C)C)cc32)[nH]c2c1C(=O)C(C)(C)CC2` [Example 16]: the “RGC Survival Activity” value is recorded as “*** (at least approximately 80% as potent as sunitinib)”.

Turning to `Cc1[nH]c(/C=C2\C(=O)Nc3ccc([S+](C)[O-])cc32)c(C)c1C(=O)N1CCOCC1` (centres unmarked), the “RGC Survival Activity” value was “** (approximately 40-80% as potent as sunitinib)”. With `CN(C)C(=O)c1ccc2c(c1)/C(=C/c1cc3c([nH]1)CCCC3=O)C(=O)N2` [Example 14], the “RGC Survival Activity” value is listed as “*** (at least approximately 80% as potent as sunitinib)”.

For `Cc1[nH]c(/C=C2\C(=O)Nc3ccc(C(=O)N(C)C)cc32)c(C)c1C(=O)NCCN1CCCC1` [Example 25], the “RGC Survival Activity” value is “*** (at least approximately 80% as potent as sunitinib)”. `CCN(CC)CCNC(=O)c1c(C)[nH]c(/C=C2\C(=O)Nc3ccc(C(=O)N(C)OC)cc32)c1C` [Example 24]: the “RGC Survival Activity” value was “*** (at least approximately 80% as potent as sunitinib)”. With `Cc1c(/C=C2\C(=O)Nc3ccc(C(=O)N4CCCCCC4)cc32)[nH]c2c1C(=O)C(C)(C)CC2` [Example 12], the “RGC Survival Activity” value was “** (approximately 40-80% as potent as sunitinib)”. Regarding `CON(C)C(=O)c1ccc2c(c1)/C(=C/c1[nH]c3c(c1C)C(=O)C(C)(C)CC3)C(=O)N2` [Example 9], the “RGC Survival Activity” value was “*** (at least approximately 80% as potent as sunitinib)”. As to `CCN(CC)CCNC(=O)c1c(C)[nH]c(/C=C2\C(=O)Nc3ccc([S+](C)[O-])cc32)c1C` (centres unmarked) [Example 18], the “RGC Survival Activity” value is on record as “*** (at least approximately 80% as potent as sunitinib)”. Consider `Cc1c(/C=C2\C(=O)Nc3ccc(C(=O)N(C)C)cc32)[nH]c2c1CC(C)(C)CC2` [Example 8], for which the “RGC Survival Activity” value is on record as “** (approximately 40-80% as potent as sunitinib)”. Turning to `CCN(CC)CCNC(=O)c1c(C)[nH]c(/C=C2\C(=O)Nc3ccc([S+]([O-])CC)cc32)c1C` (centres unmarked) [Example 19], the “RGC Survival Activity” value is reported as “*** (at least approximately 80% as potent as sunitinib)”. Same read-out and setting: in the case of `Cc1[nH]c(/C=C2\C(=O)Nc3ccc([S+](C)[O-])cc32)c(C)c1C(=O)N1CCN(C)CC1` (centres unmarked) it was “* (approximately 10-40% as potent as sunitinib)”; in that of `CCN(C)C(=O)c1ccc2c(c1)/C(=C/c1[nH]c3c(c1C)C(=O)C(C)(C)CC3)C(=O)N2` [Example 10], “*** (at least approximately 80% as potent as sunitinib)”; in that of `CC[S+]([O-])c1ccc2c(c1)/C(=C/c1cc3c([nH]1)CCCC3)C(=O)N2` (centres unmarked) [Example 7], “*** (at least approximately 80% as potent as sunitinib)”. For the molecule `CCN(CC)CCNC(=O)c1c(C)[nH]c(/C=C2\C(=O)Nc3ccc(C(=O)N4CCCC4)cc32)c1C` [Example 23], the “RGC Survival Activity” value is “*** (at least approximately 80% as potent as sunitinib)”. Consider `CCN(CC)CCNC(=O)c1c(C)[nH]c(/C=C2\C(=O)Nc3ccc([S+](C)[O-])cc32)c1C` (centres unmarked) [Example 17], for which the “RGC Survival Activity” value is recorded as “*** (at least approximately 80% as potent as sunitinib)”. With `CCN(CC)CCNC(=O)c1c(C)[nH]c(/C=C2\C(=O)Nc3ccc(C(=O)N(C)C)cc32)c1C` [Example 26], the “RGC Survival Activity” value is “*** (at least approximately 80% as potent as sunitinib)”.

Broadly, the EC50 is the midpoint of the concentration-response curve.
